Melting point data for 33 molecules are collected here from patent publication US6780996B2, “Process for the preparation of 7-substituted-3 quinolinecarbonitriles” (Wyeth Holdings Corporation, priority 2002, dated 2004).

SMILES strings stand for the structures.

Regarding `COc1cc(Nc2c(C#N)cnc3cc(OCc4cccs4)c(OC)cc23)c(Cl)cc1Cl` [Example 5, 4-[(2,4-Dichloro-5-methoxyphenyl)amino]-6-methoxy-7-(2-thienylmethoxy)-3-quinolinecarbonitrile], the melting point – broadly, the temperature, or range, at which the solid turns liquid – lay within 194 to 196 °C. `COCCOc1cc2ncc(C#N)c(Nc3cc(OC)c(Cl)cc3Cl)c2cc1OCCN1CCOCC1` [Example 26, 4-[(2,4-Dichloro-5-methoxyphenyl)amino]-7-(2-methoxyethoxy)-6-(2-morpholin-4-ylethoxy)3-quinolinecarbonitrile] came in with a melting point of 158 to 159 °C. For `COc1cc(Nc2c(C#N)cnc3cc(NCCCC4CCN(C)CC4)c(OC)cc23)c(Cl)cc1Cl` [Example 28, 4-[(2,4-Dichloro-5-methoxyphenyl)amino]-6-methoxy-7-{[3-(1-methylpiperidin-4-yl)propyl]amino}quinoline-3-carbonitrile], the melting point was 122 to 124 °C. As for `CCN1CCC(COc2cc3ncc(C#N)c(Nc4cc(OC)c(Cl)cc4Cl)c3cc2OC)CC1` [Example 51, 4-[(2,4-Dichloro-5-methoxyphenyl)amino]-7-[(1-ethylpiperidine-4-yl)methoxy]-6-methoxyquinoline-3-carbonitrile], the melting point lay within 192 to 195 °C. In turn, `COc1cc(Nc2c(C#N)cnc3cc(OCC(C)(C)CN(C)C)c(OC)cc23)c(Cl)cc1Cl` [Example 2, 4-[(2,4-Dichloro-5-methoxyphenyl)amino]-7-(3-dimethylamino-2,2-dimethylpropoxy)-6-methoxy-3-quinolinecarbonitrile] registered a melting point of 178 to 180 °C. `COCCOc1ccc2c(Nc3cc(OC)c(Cl)cc3Cl)c(C#N)cnc2c1` [Example 33, 4-[(2,4-Dichloro-5-methoxyphenyl)amino]-7-(2-methoxyethoxy)-3-quinolinecarbonitrile] registered a melting point of 182 to 183 °C. In the case of `COc1cc2c(Nc3ccc(Sc4nccn4C)c(Cl)c3)c(C#N)cnc2cc1N1CCN(C)CC1` [Example 27, 4-[3-Chloro-4-(1-methyl-1H-imidazol-2-ylsulfanyl)-phenylamino]-6-methoxy-7-(4-methylpiperazin-1-yl)-quinoline-3-carbonitrile], the melting point lay within 270 to 272 °C. The value for `COCCNc1cc2ncc(C#N)c(Nc3cc(OC)c(Cl)cc3Cl)c2cc1OC` [Example 56, 4-[(2,4-Dichloro-5-methoxyphenyl)amino]-6-methoxy-7-[(2-methoxyethyl)amino]quinoline-3-carbonitrile] was 165 to 166 °C. `CCCCNc1c(C#N)cnc2cc(OCCOC)c(OC)cc12` [Example 10, 4-Butylamino-6-methoxy-7-(2-methoxyethoxy)-3-quinolinecarbonitrile] returned a melting point of 99 to 102 °C.

`COCCOc1cc2c(Nc3ccc(Sc4nccn4C)c(Cl)c3)c(C#N)cnc2cc1OCCCN(C)C` [Example 20, 4-({3-Chloro-4-[(1-methyl-1H-imidazol-2-yl)sulfanyl]phenyl}amino)-7-[3-(dimethylamino)propoxy]-6-(2-methoxyethoxy)-3-quinolinecarbonitrile] had a melting point of 194 to 203 °C.

`COCCOc1cc2c(Nc3cc(OC)c(Cl)cc3Cl)c(C#N)cnc2cc1OCC1CCN(C)CC1` [Example 22, 4-[(2,4-Dichloro-5-methoxyphenyl)amino]-6-[2-methoxyethoxy]-7-[(1-methylpiperidine-4-yl)methoxy]3-quinolinecarbonitrile] had a melting point of 153 to 155 °C. `COc1cc2c(Nc3ccc(Sc4nccn4C)c(Cl)c3)c(C#N)cnc2cc1NCCCN(C)C` [Example 29, 4-[3-Chloro-4-(1-methyl-1H-imidazol-2-ylsulfanyl)-phenylamino]-7-{[3-(dimethyl)aminopropyl]amino}-6-methoxyquinoline-3-carbonitrile] came in with a melting point of 198 to 200 °C.

Turning to `COc1cc(Nc2c(C#N)cnc3cc(Oc4ccncc4)c(OC)cc23)c(Cl)cc1Cl` [Example 12, 4-[(2,4-Dichloro-5-methoxyphenyl)amino]-6-methoxy-7-(pyridin-4-yloxy)-3-quinolinecarbonitrile], the melting point was in the range of 267 to 269 °C. In turn, `COc1cc(Nc2c(C#N)cnc3cc(NCCCN(C)C)c(OC)cc23)c(Cl)cc1Cl` [Example 54, 4-[(2,4-Dichloro-5-methoxyphenyl)amino]-7-{[3-(dimethylamino)propyl]amino}-6-methoxyquinoline-3-carbonitrile] came in with a melting point of 165 to 167 °C. Regarding `COCCOc1cc2ncc(C#N)c(Nc3ccc(C)cc3C)c2cc1OC` [Example 40, 4-[(2,4-Dimethylphenyl)amino]-6-methoxy-7-(2-methoxyethoxy)quinoline-3-carbonitrile], the melting point fell in the range of 107 to 109 °C. `CC#CCOc1cc2ncc(C#N)c(Nc3cc(OC)c(Cl)cc3Cl)c2cc1OC` [Example 1, 7-(2-Butynyloxy)-4-[(2,4-dichloro-5-methoxyphenyl)amino]-6-methoxy-3-quinolinecarbonitrile] showed a melting point of 193 to 197 °C. The value for `CCCCOc1cc2c(Nc3cc(OC)c(Cl)cc3Cl)c(C#N)cnc2cc1OCCOC` [Example 24, 6-Butoxy-4-[(2,4-dichloro-5-methoxyphenyl)amino]-7-(2-methoxyethoxy)-3-quinolinecarbonitrile] was 166 to 167 °C; that for `CCOc1cc2c(Nc3cc(OC)c(Cl)cc3Cl)c(C#N)cnc2cc1OCCOC` [Example 23, 4-[(2,4-Dichloro-5-methoxyphenyl)amino]-6-ethoxy-7-(2-methoxyethoxy)3-quinolinecarbonitrile] was 215 to 217 °C; that for `COCCOc1cc2ncc(C#N)c(Nc3cc(OC)c(OC)c(OC)c3)c2cc1OC` [Example 17, 6-Methoxy-7-[2-methoxyethoxy]-4-[(3,4,5-trimethoxyphenyl)amino]-3-quinolinecarbonitrile] was 188 to 190 °C. For `COCCOc1cc2ncc(C#N)c(Nc3cc(OC)ccc3Cl)c2cc1OC` [Example 38, 4-[(2-Chloro-5-methoxyphenyl)amino]-6-methoxy-7-(2-methoxyethoxy)quinoline-3-carbonitrile], the melting point fell in the range of 179 to 181 °C. Take `COc1cc2c(Nc3ccc(Sc4nccn4C)c(Cl)c3)c(C#N)cnc2cc1N(C)CCCN(C)C` [Example 30, 4-[3-Chloro-4-(1-methyl-1H-imidazol-2-ylsulfanyl)-phenylamino]-7-{[3-(dimethylamino)propyl]-methylamino}-6-methoxyquinoline-3-carbonitrile]: the melting point was 196 to 201 °C. Take `COc1ccc(C)c(Nc2c(C#N)cnc3cc(OCCCC4CCN(C)CC4)c(OC)cc23)c1` [Example 48, 6-Methoxy-4-[(5-methoxy-2-methylphenyl)amino]-7-[3-(1-methylpiperidine-4-yl)propoxy]quinoline-3-carbonitrile]: the melting point was in the range of 163 to 166 °C. `COc1cc(Nc2c(C#N)cnc3cc(OCCCN4CCS(=O)(=O)CC4)c(OC)cc23)c(Cl)cc1Cl` [Example 3, 4-[(2,4-Dichloro-5-methoxyphenyl)amino]-7-[3-(1,1-dioxido-4-thiomorpholinyl)propoxy]-6-methoxy-3-quinolinecarbonitrile] gave a melting point of 118 to 120 °C. The value for `COc1cc(Nc2c(C#N)cnc3cc(OCC4CCCCO4)c(OC)cc23)c(Cl)cc1Cl` (stereo not drawn) [Example 25, 4-[(2,4-Dichloro-5-methoxyphenyl)amino]-6-methoxy-7-(tetrahydro-2H-pyran-2-ylmethoxy)3-quinolinecarbonitrile] was 193 to 196 °C; that for `COCCOc1ccc2c(Nc3ccc(Cl)cc3Cl)c(C#N)cnc2c1` [Example 34, 4-[(2,4-Dichlorophenyl)amino]-7-(2-methoxyethoxy)-3-quinolinecarbonitrile] was 144 to 145 °C; that for `COc1cc(Nc2c(C#N)cnc3cc(N(C)CCCN(C)C)c(OC)cc23)c(Cl)cc1Cl` [Example 55, 4-[(2,4-Dichloro-5-methoxyphenyl)amino]-7-{[3-(dimethylamino)propyl](methyl)amino]-6-methoxyquinoline-3-carbonitrile] was 116 to 117 °C. With `CCN1CCN(CCCOc2cc3ncc(C#N)c(Nc4ccc(Sc5nccn5C)c(Cl)c4)c3cc2OCCOC)CC1` [Example 21, 4-({3-Chloro-4-[(1-methyl-1H-imidazol-2-yl)sulfanyl]phenyl}amino)-7-[3-(4-ethyl-1-piperazinyl)propoxy]-6-(2-methoxyethoxy)-3-quinolinecarbonitrile], the melting point fell in the range of 188 to 190 °C.

`COc1cc(Nc2c(C#N)cnc3cc(Sc4ccccc4)c(OC)cc23)c(Cl)cc1Cl` [Example 8, 4-[(2,4-Dichloro-5-methoxyphenyl)amino]-6-methoxy-7-phenylsulfanyl-3-quinolinecarbonitrile] gave a melting point of 220 to 222 °C. On to `COc1cc2c(Nc3ccc(C)cc3C)c(C#N)cnc2cc1OCCCC1CCN(C)CC1` [Example 49, 4-[(2,4-Dimethylphenyl)amino]-6-methoxy-7-[3(1-methylpiperidine-4-yl)propoxy]quinoline-3-carbonitrile], for which the melting point fell in the range of 159 to 162 °C. Turning to `COCCOc1cc2ncc(C#N)c(Nc3cc(OC)c(C)cc3C)c2cc1OC` [Example 37, 4-[(2,4-Dimethyl-5-methoxyphenyl)amino]-6-methoxy-7-(2-methoxyethoxy)quinoline-3-carbonitrile], the melting point fell in the range of 143 to 145 °C. Take `COc1cc2c(Nc3ccc(Oc4cccnc4)cc3)c(C#N)cnc2cc1OCC1CCN(C)CC1` [Example 57, 6-Methoxy-7-(1-methyl-piperidin-4-ylmethoxy)-4-{[4-(pyridin-3-yloxy)-phenyl]amino}quinoline-3-carbonitrile]: the melting point was 182 to 184 °C.

Molecule `COc1cc(Nc2c(C#N)cnc3cc(OCC4CCNCC4)c(OC)cc23)c(Cl)cc1Cl` [Example 53, 4-[(2,4-Dichloro-5-methoxyphenyl)amino]-6-methoxy-7-(piperidin-4-ylmethoxy)quinoline-3-carbonitrile] had a melting point of 134 to 138 °C. `COc1cc(Nc2c(C#N)cnc3cc(OCc4ccccc4)c(OC)cc23)c(Cl)cc1Cl` [Example 6, 7-Benzyloxy-4-[(2,4-dichloro-5-methoxyphenyl)amino]-6-methoxy-3-quinolinecarbonitrile] came in with a melting point of 198 to 200 °C.
